Laboratory results from patent US7196110B2, “N-substituted tricyclic 3-aminopyrazoles as inhibitors for the treatment of cell proliferative disorders” (Janssen Phamaceutica N.V., priority 2002, dated 2007).
Read-outs that look alike come from different tables or passages of the source.

Molecular target: T1, PDGF-receptor beta enzyme comprising the tyrosine kinase domain (Homo sapiens, UniProt P09619)
T1 construct: from amino acid 545 to 1106 of GenBank Access NO: AAA36427
Test: Inhibition of PDGF-receptor kinase activity (cell-free, PLC1 peptide, 33P Flashplate)
Format: biochemical
Details: for inhibition at 10 µM / Percent Inhibition @ 10 uM: compound at 10 uM; for inhibition at 10 µM: read-out: Percent Inhibition @ 10 uM
Procedure: PDGF-R kinase activity was assayed by its ability to phosphorylate one of its target proteins, PLCγ, in a cell-free system, in particular, a PLC1 peptide comprising the tyrosine residue where the phosphorylation occurs was used for the assay.
10× Kinase Buffer (500 mM Tris-HCl pH=8, 100 mM MgCl2, 1 mM Na3VO4); 10 mM DTT (final concentration at 1 mM in assay); 10 mM ATP (final concentration at 5 μM in assay); ^33P-γ-ATP (Cat. No.: NEG/602H. 2000-3000 Ci/mmol) purchased from NEN; Purified, soluble, recombinant PDGF-receptor beta enzyme comprising the tyrosine kinase domain (from amino acid 545 to 1106 of GenBank Access NO: AAA36427 ) at 0.4 mg/mL; Enzyme Dilution Buffer (50 mM Tris-HCl pH=8.0, 0.1% BSA); Wash/Stop Buffer (PBS +100 mM EDTA); NEN Streptavidin Flashplates (Cat. No.: SMP-103) which binds to the biotinylated PLC1 peptide but not the PDGF-R enzyme; PLC1 peptide (Biotin-[…]-Amide) at 1 mM in 50 mM Tris-HCL with pH of 8.0.
Reagents were first mixed according the following regimen:
The above reaction mixture was dispensed into each well of a Flashplate at 70 μl/well. To test the effect of a compound on PDGF-R kinase activity, the test compound either in a fixed concentration or in serially diluted concentrations in 100% DMSO was added to appropriate wells at 1 μl/well.
Enzyme PDGF-R was diluted in Enzyme dilution buffer as following:
The kinase reaction was initiated by adding 30 μl of diluted PDGF-R enzyme solution to each well on the Flashplate containing hot ATP and PLC1, except wells of column 12 rows E through H, which were used to calculate the plate background. The Flashplate was swirled to mix and was incubated at 30° C. for 60 minutes. Then, the reaction mixture was discarded and the Flashplate was washed 3 times each with 200 μl Wash/Stop Buffer. Subsequently, each well on the Flashplate was filled with 200 μl of Wash/Stop buffer. The amount of ^33P retained in each well was measured using a Packard TopCount after the plate was sealed with a transparent plate sealer.
The percentage of inhibition of the test compound on PDGF-R kinase activity is defined as […].
In order to test the potency of inhibition of present compounds, an IC50 for an individual compound was measured using the above procedure. As used herein, the IC50 for PDGF-R kinase activity refers to the concentration of an inhibitor at which the activity of the PDGF-R kinase is reduced by one-half as compared with reactions containing no inhibitor.

[1] = PDGF-R kinase activity, read-out: IC50
[2] = read-out: IC50 (μM) on PDGF-R kinase activity

T1 sequence (P09619 545-1106): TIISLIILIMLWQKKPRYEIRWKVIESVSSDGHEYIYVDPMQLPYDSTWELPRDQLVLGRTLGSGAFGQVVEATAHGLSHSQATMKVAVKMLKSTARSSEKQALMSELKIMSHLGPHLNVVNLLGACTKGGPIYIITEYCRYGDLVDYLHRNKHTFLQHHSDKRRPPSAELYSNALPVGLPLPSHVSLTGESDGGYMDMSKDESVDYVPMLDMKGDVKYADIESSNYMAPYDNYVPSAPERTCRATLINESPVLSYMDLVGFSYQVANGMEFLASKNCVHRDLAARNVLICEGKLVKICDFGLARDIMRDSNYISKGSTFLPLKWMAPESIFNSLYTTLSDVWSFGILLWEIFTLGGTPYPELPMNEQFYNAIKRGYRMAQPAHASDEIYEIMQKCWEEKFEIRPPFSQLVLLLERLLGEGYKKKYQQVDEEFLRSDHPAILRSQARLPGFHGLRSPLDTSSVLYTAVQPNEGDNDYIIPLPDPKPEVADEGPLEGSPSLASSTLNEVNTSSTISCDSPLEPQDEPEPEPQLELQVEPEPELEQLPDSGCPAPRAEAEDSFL

COc1cccc([C@H](C)Nc2[nH]nc3c2Cc2cc(OC)c(OC)cc2-3)c1 (single isomer, unassigned) [Compound 324, (6,7-Dimethoxy-2,4-dihydro-indeno[1,2-c]pyrazol-3-yl)-[1-(3-methoxy-phenyl)-ethyl]-amine]
inhibition at 10 µM (PDGF-R kinase activity): 74.5%
IC50 [1]: 1.32 µM

CCC1c2cc(OC)c(OC)cc2-c2[nH]nc(Nc3cccc(Br)c3)c21 (single isomer, unassigned) [Compound 482, (3-Bromo-phenyl)-(4-ethyl-6,7-dimethoxy-1,4-dihydro-indeno[1,2-c]pyrazol-3-yl)-amine]
Percent Inhibition @ 10 uM (PDGF-R kinase activity): 100%
IC50 [1]: 0.0386 µM

CCC1c2cc(OC)c(OC)cc2-c2[nH]nc(Nc3cccc(Br)c3)c21 (single isomer, unassigned) [Compound 483, (3-Bromo-phenyl)-(4-ethyl-6,7-dimethoxy-1,4-dihydro-indeno[1,2-c]pyrazol-3-yl)-amine]
Percent Inhibition @ 10 uM (PDGF-R kinase activity): 78.5%
IC50 [1]: 4.97 µM

CCOc1cccc(Nc2[nH]nc3c2C(C)c2cc(OC)c(OC)cc2-3)c1 (single isomer, unassigned) [Compound 554, (6,7-Dimethoxy-4-methyl-2,4-dihydro-indeno[1,2-c]pyrazol-3-yl)-(3-ethoxy-phenyl)-amine]
Percent Inhibition @ 10 uM (PDGF-R kinase activity): 102%
IC50 [1]: 0.0208 µM

CCC1c2cc(OC)c(OC)cc2-c2n[nH]c(Nc3cccc(Br)c3)c21 (single isomer, unassigned) [Compound 555, *R-(3-Bromo-phenyl)-(6,7-dimethoxy-4-ethyl-2,4-dihydro-indeno[1,2-c]pyrazol-3-yl)-amine]
inhibition at 10 µM (PDGF-R kinase activity): 97.5%
IC50 [1]: 0.0209 µM

CCOc1cccc(Nc2[nH]nc3c2C(CC)c2cc(OC)c(OC)cc2-3)c1 (single isomer, unassigned) [Compound 556, (3-Ethoxy-phenyl)-(4-ethyl-6,7-dimethoxy-2,4-dihydro-indeno[1,2-c]pyrazol-3-yl)-amine]
Percent Inhibition @ 10 uM (PDGF-R kinase activity): 98%
IC50 [1]: 0.0104 µM

COc1cc2c(cc1OC)C(C)c1c-2n[nH]c1Nc1cccnc1Cl (single isomer, unassigned) [Compound 559, (2-Chloro-pyridin-3-yl)-(6,7-dimethoxy-4-methyl-2,4-dihydro-indeno[1,2-c]pyrazol-3-yl)-amine]
inhibition at 10 µM (PDGF-R kinase activity): 102%
IC50 [1]: 0.0371 µM

COc1cc2c(cc1OC)C(C)c1c-2n[nH]c1Nc1cccc(Br)c1 (single isomer, unassigned) [Compound 568, *S-(3-Bromo-phenyl)-(6,7-dimethoxy-4-methyl-2,4-dihydro-indeno[1,2-c]pyrazol-3-yl)-amine]
inhibition at 10 µM (PDGF-R kinase activity): 78%
IC50 [1]: 0.79 µM

CCOc1cccc(Nc2[nH]nc3c2C(C)c2cc(OC)c(OC)cc2-3)c1 (single isomer, unassigned) [Compound 569, (6,7-Dimethoxy-4-methyl-2,4-dihydro-indeno[1,2-c]pyrazol-3-yl)-(3-ethoxy-phenyl)-amine]
Percent Inhibition @ 10 uM (PDGF-R kinase activity): 64%
IC50 [1]: 5.1 µM

CCC1c2cc(OC)c(OC)cc2-c2n[nH]c(Nc3cccc(Br)c3)c21 (single isomer, unassigned) [Compound 570, *S-(3-Bromo-phenyl)-(6,7-dimethoxy-4-ethyl-2,4-dihydro-indeno[1,2-c]pyrazol-3-yl)-amine]
Percent Inhibition @ 10 uM (PDGF-R kinase activity): 77.5%
IC50 [2]: 2.05 µM

CCOc1cccc(Nc2[nH]nc3c2C(CC)c2cc(OC)c(OC)cc2-3)c1 (single isomer, unassigned) [Compound 571, (3-Ethoxy-phenyl)-(4-ethyl-6,7-dimethoxy-2,4-dihydro-indeno[1,2-c]pyrazol-3-yl)-amine]
Percent Inhibition @ 10 uM (PDGF-R kinase activity): 66%
IC50 [2]: 3.89 µM

CCC1c2cc(OC)c(OC)cc2-c2n[nH]c(NCc3c(Cl)cccc3Cl)c21 (single isomer, unassigned) [Compound 585, (2,6-Dichloro-benzyl)-(4-ethyl-6,7-dimethoxy-2,4-dihydro-indeno[1,2-c]pyrazol-3-yl)-amine]
inhibition at 10 µM (PDGF-R kinase activity): 102%
IC50 [2]: 0.429 µM

COc1cc2c(cc1OC)C(C)c1c-2n[nH]c1NCc1c(Cl)cccc1Cl (single isomer, unassigned) [Compound 586, (2,6-Dichloro-benzyl)-(6,7-dimethoxy-4-methyl-2,4-dihydro-indeno[1,2-c]pyrazol-3-yl)-amine]
inhibition at 10 µM (PDGF-R kinase activity): 100%
IC50 [2]: 0.0278 µM

CCC1c2cc(OC)c(OC)cc2-c2n[nH]c(Nc3cccnc3Cl)c21 (single isomer, unassigned) [Compound 607, (2-Chloro-pyridin-3-yl)-(4-ethyl-6,7-dimethoxy-2,4-dihydro-indeno[1,2-c]pyrazol-3-yl)-amine]
inhibition at 10 µM (PDGF-R kinase activity): 78%
IC50 [2]: 0.547 µM

c1ccc(Nc2[nH]nc3c2Cc2ccccc2-3)cc1 [Compound 1]
inhibition at 10 µM (PDGF-R kinase activity): 91%
IC50 [1]: 0.317 µM

Clc1ccc(Nc2[nH]nc3c2Cc2ccccc2-3)cc1 [Compound 3, (4-Chloro-phenyl)-(2,4-dihydro-indeno[1,2-c]pyrazol-3-yl)-amine]
inhibition at 10 µM (PDGF-R kinase activity): 90%
IC50 [1]: 0.157 µM

COc1cc2c(cc1OC)-c1n[nH]c(Nc3ccc(Cl)cc3)c1C2 [Compound 5, (4-Chloro-phenyl)-(6,7-dimethoxy-2,4-dihydro-indeno[1,2-c]pyrazol-3-yl)-amine]
inhibition at 10 µM (PDGF-R kinase activity): 91%

COc1ccc(Nc2[nH]nc3c2Cc2cc(OC)c(OC)cc2-3)cc1 [Compound 6, (6,7-Dimethoxy-2,4-dihydro-indeno[1,2-c]pyrazol-3-yl)-(4-methoxy-phenyl)-amine]
inhibition at 10 µM (PDGF-R kinase activity): 75%
IC50 [1]: 0.131 µM

COc1ccc2c(c1)Cc1c-2n[nH]c1Nc1ccccc1 [Compound 7, (6-Methoxy-2,4-dihydro-indeno[1,2-c]pyrazol-3-yl)-phenyl-amine]
inhibition at 10 µM (PDGF-R kinase activity): 92%
IC50 [1]: 0.217 µM

COc1cc2c(cc1OC)-c1n[nH]c(Nc3ccccc3Cl)c1C2 [Compound 9, (2-Chloro-phenyl)-(6,7-dimethoxy-2,4-dihydro-indeno[1,2-c]pyrazol-3-yl)-amine]
inhibition at 10 µM (PDGF-R kinase activity): 89%

CCOC(=O)c1ccc(Nc2[nH]nc3c2Cc2cc(OC)c(OC)cc2-3)cc1 [Compound 10, 4-(6,7-Dimethoxy-2,4-dihydro-indeno[1,2-c]pyrazol-3-ylamino)-benzoic acid ethyl ester]
inhibition at 10 µM (PDGF-R kinase activity): 68%
IC50 [1]: 2.07 µM

COc1cc2c(cc1OC)-c1n[nH]c(Nc3ccccc3OC(F)(F)F)c1C2 [Compound 15, (6,7-Dimethoxy-2,4-dihydro-indeno[1,2-c]pyrazol-3-yl)-(2-trifluoromethoxy-phenyl)-amine]
inhibition at 10 µM (PDGF-R kinase activity): 79%
IC50 [1]: 1.92 µM

COc1cc2c(cc1OC)-c1n[nH]c(Nc3ccc(OC(F)(F)F)cc3)c1C2 [Compound 16, (6,7-Dimethoxy-2,4-dihydro-indeno[1,2-c]pyrazol-3-yl)-(4-trifluoromethoxy-phenyl)-amine]
inhibition at 10 µM (PDGF-R kinase activity): 79%
IC50 [1]: 4 µM

COc1cc2c(cc1OC)-c1n[nH]c(Nc3ccc(Cl)cc3Cl)c1C2 [Compound 17, (2,4-Dichloro-phenyl)-(6,7-dimethoxy-2,4-dihydro-indeno[1,2-c]pyrazol-3-yl)-amine]
inhibition at 10 µM (PDGF-R kinase activity): 79%
IC50 [1]: 3.54 µM

COc1cc2c(cc1OC)-c1n[nH]c(Nc3ccc(Cl)c(Cl)c3)c1C2 [Compound 18, (3,4-Dichloro-phenyl)-(6,7-dimethoxy-2,4-dihydro-indeno[1,2-c]pyrazol-3-yl)-amine]
inhibition at 10 µM (PDGF-R kinase activity): 65%
IC50 [1]: 0.23 µM

COc1cc2c(cc1OC)-c1n[nH]c(Nc3cc(Cl)cc(Cl)c3)c1C2 [Compound 19, (3,5-Dichloro-phenyl)-(6,7-dimethoxy-2,4-dihydro-indeno[1,2-c]pyrazol-3-yl)-amine]
inhibition at 10 µM (PDGF-R kinase activity): 91%
IC50 [1]: 0.174 µM

COc1cc2c(cc1OC)-c1n[nH]c(Nc3cccc(Cl)c3Cl)c1C2 [Compound 20, (2,3-Dichloro-phenyl)-(6,7-dimethoxy-2,4-dihydro-indeno[1,2-c]pyrazol-3-yl)-amine]
inhibition at 10 µM (PDGF-R kinase activity): 77%
IC50 [1]: 1.1 µM

Clc1ccc2c(c1)Cc1c-2n[nH]c1Nc1ccccc1 [Compound 21, (6-Chloro-2,4-dihydro-indeno[1,2-c]pyrazol-3-yl)-phenyl-amine]
inhibition at 10 µM (PDGF-R kinase activity): 103%
IC50 [1]: 0.121 µM
